Measurements as given in publication PMC5216056 (Nature Communications, 2017).

Legend:
hCB2R = hCB2R (Homo sapiens, UniProt P34972); experiment: cell-based; type: cell-based; parameters: expressed in transfected cells; host or cells: Flp-In-293 (Invitrogen #R750-07), pcDNA5/FRT
GR (h) = target: T1, GR (h) (Homo sapiens, UniProt P04150); experiment: CEREP panel; type: binding; settings: 10 µM
T1 construct: CEREP (contract assay)
T1 sequence (P04150 1-777): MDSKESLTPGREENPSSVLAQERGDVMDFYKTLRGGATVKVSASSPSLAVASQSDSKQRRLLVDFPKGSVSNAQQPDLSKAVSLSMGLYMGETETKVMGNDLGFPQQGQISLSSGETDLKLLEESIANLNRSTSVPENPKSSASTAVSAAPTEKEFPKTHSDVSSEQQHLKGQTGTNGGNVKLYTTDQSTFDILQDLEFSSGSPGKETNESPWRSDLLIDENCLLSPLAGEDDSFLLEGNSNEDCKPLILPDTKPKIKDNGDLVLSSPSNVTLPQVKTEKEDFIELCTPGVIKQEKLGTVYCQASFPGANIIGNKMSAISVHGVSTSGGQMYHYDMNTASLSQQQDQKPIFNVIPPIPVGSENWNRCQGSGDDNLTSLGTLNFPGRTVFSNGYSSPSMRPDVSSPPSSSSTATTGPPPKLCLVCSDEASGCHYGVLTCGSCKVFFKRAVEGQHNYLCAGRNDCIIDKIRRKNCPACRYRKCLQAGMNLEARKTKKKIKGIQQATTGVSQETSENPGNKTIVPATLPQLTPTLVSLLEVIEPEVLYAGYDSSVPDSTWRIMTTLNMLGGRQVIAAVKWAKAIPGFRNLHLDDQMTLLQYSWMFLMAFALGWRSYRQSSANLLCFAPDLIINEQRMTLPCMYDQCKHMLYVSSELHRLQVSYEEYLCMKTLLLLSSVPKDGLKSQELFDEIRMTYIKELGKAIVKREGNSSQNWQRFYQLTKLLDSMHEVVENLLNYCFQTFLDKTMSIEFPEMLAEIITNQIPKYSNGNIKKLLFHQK

hDAGL-α = target: T2, hDAGL-α (Homo sapiens, UniProt Q9Y4D2); experiment: Biochemical DAGLα activity assay; settings: 10 µM
T2 construct: expressed in transfected cells; host or cells: HEK293T (transient), membrane preparation
T2 sequence (Q9Y4D2 1-1042): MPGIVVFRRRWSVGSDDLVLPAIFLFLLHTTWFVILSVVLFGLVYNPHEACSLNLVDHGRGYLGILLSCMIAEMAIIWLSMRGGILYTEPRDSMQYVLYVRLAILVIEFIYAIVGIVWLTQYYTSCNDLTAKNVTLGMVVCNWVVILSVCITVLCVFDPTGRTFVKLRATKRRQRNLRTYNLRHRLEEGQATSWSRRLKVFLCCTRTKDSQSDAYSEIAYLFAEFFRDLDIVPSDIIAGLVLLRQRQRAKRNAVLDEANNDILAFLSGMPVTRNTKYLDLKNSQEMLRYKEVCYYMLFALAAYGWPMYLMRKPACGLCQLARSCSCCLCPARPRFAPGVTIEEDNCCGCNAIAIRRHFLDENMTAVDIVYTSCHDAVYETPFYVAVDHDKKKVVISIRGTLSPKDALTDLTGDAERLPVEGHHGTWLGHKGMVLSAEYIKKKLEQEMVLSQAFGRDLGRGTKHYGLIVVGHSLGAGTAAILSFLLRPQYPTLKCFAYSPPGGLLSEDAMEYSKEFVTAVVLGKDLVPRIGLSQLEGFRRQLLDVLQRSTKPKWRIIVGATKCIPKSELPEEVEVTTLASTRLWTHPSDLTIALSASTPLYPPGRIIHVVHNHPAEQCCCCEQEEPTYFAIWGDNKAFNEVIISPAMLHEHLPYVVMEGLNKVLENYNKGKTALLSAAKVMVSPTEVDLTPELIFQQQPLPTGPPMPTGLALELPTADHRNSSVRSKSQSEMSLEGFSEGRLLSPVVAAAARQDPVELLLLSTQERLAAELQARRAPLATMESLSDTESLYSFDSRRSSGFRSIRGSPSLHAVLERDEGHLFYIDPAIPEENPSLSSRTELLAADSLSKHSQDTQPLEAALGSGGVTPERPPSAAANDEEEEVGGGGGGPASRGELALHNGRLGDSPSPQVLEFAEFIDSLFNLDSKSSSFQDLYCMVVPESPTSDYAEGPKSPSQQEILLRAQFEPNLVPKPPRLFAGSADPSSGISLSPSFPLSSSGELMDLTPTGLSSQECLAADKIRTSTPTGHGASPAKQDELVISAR
Description: Cell culture and membrane preparation were performed as previously described. HEK293T cells (source: Dutch Cancer Institute) were grown in DMEM with stable glutamine and phenolred (PAA), 10% New Born Calf serum, penicillin and streptomycin. Cells were passaged every 2–3 days by resuspending in medium and seeding them to appropriate confluence. Membranes were prepared from transiently transfected HEK293T cells. One day prior to transfection 10^7 cells were seeded in a 15 cm petri dish. Cells were transfected by the addition of a 3:1 mixture of polyethyleneimine (60 μg) and plasmid DNA (20 μg) in 2 ml serum-free medium. The medium was refreshed after 24 h, and after 72 h the cells were harvested by suspending them in 20 ml medium. The suspension was centrifuged for 10 min at 1000, rpm, and the supernatant was removed. The cell pellet was stored at −80 °C until use. Cell pellets were thawed on ice and suspended in lysis buffer A (20 mM HEPES, 2 mM DTT, 0.25 M sucrose, 1 mM MgCl2, […] Benzonase). The suspension was homogenized by polytrone (3 × 7 s) and incubated for 30 min on ice. The suspension was subjected to ultracentrifugation (100,000 × g, 30 min, 4 °C, Beckman Coulter, Type Ti70 rotor) to yield the cytosolic fraction in the supernatant and the membrane fraction as a pellet. The pellet was resuspended in lysis buffer B (20 mM HEPES, 2 mM DTT). The protein concentration was determined with Quick Start Bradford assay (Biorad). The protein fractions were diluted to a total protein concentration of 1 mg ml^−1 and stored in small aliquots at −80 °C until use.
hDAGL-α activity was measured by the extent of the hydrolysis of para-nitrophenylbutyrate (PNP-butyrate) by membrane preparations from HEK293T cells (source: Dutch Cancer Institute) transiently transfected with hDAGL-α (ref. [43]). Percentage of inhibition of reference ligands was determined in comparison with an untreated control. Reactions were performed in 50 mM pH 7.2 HEPES buffer with 0.05 μg μl^−1 final protein concentration hDAGL-α transfected protein.

[1] = system: AEA reuptake in HaCaT cells; experiment: cells; type: cell-based, human; settings: for AEA reuptake Efficacy (% inhibition) HaCaT cells: from dose-response; for IC50: read-out: AEA reuptake IC50 (95% CI) HaCaT cells
[2] = for Pct acceptor / Pct donor / Pct membrane: PAMPA; for Pct membrane: compound found in membranes; for Pampa Peff: membrane permeation coefficient

Chain of hCB2R (P34972 whole entry): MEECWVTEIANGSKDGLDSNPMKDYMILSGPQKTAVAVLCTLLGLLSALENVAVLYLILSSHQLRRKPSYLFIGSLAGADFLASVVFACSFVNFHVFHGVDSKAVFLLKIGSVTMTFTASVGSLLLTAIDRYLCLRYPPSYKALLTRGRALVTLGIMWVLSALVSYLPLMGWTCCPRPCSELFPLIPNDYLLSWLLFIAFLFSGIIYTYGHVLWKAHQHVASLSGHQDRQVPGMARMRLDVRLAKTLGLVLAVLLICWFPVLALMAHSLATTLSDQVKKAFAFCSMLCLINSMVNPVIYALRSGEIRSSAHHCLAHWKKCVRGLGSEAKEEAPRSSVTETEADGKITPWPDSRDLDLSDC

Structure (SMILES) | Emax ± SEM pERK hCB2R (hCB2R) | pEC50 ± SEM pERK hCB2R (hCB2R) | % inhibition GR (h) (GR (h)) | DAGL % inhibition at 10 µM ± SD (hDAGL-α) | AEA reuptake Efficacy (% inhibition) HaCaT cells [1] | IC50 [1] | Pct acceptor [2] | Pct donor [2] | Pct membrane [2] | Pampa Peff [2]
COc1ccc(C(=O)c2c(C)n(CCN3CCOCC3)c3cc(I)ccc23)cc1 [AM630] | -92 ± 4 | 5.09 ± 0.06 | 38% | 6 ± 12% | 65% | 4.18 µM | 0.37% | 35.4% | 64.3% | 0.2 cm/s*10-6
CN1CCCC[C@H]1Cn1cc(C(=O)c2cc([N+](=O)[O-])ccc2I)c2ccccc21 [(S)-AM1241] | 60 ± 11 | 6.92 ± 0.22 | 10% | 9 ± 9% | 90% | 4.49 µM | 2.2% | 34% | 64% | 1.41 cm/s*10-6
